ChEMBL document CHEMBL1142498 (J Med Chem, 2008)

Columns and labels:
[1] = biological target: Sodium-dependent serotonin transporter (Homo sapiens, UniProt P31645); type: cell-based, JAR
Description: Inhibition of 5-HT transporter-mediated [3H]5HT uptake in human Jar cells

[2] = organism: Rattus norvegicus; assay: Displacement of [3H]prazosin from alpha1 adrenergic receptor in Sprague-Dawley rat cortical membrane at 1 uM
[3] = biological target: Sodium-dependent serotonin transporter (Rattus norvegicus, UniProt P31652)
Description: Displacement of [3H]paroxetine from serotonin transporter in Sprague-Dawley rat frontal cortical membrane

[4] = biological target: T1, 5-hydroxytryptamine receptor 1A (Homo sapiens, UniProt P08908)
T1 sequence (P08908 whole entry): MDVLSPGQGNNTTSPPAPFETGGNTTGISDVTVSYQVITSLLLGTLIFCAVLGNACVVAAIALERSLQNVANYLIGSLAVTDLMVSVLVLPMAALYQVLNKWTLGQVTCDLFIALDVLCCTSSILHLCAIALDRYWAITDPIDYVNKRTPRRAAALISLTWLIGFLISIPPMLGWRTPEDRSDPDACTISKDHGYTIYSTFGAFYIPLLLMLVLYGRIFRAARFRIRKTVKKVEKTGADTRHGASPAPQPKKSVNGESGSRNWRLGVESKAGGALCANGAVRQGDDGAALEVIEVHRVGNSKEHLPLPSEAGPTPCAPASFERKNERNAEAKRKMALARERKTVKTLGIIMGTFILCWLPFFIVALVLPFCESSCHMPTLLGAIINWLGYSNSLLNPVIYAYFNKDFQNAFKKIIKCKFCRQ
Description: Activity at human cloned 5HT1A receptor expressed in CHO cells assessed as blockade of 5-HT-stimulated [35S]GTPgammaS binding

[5] = biological target: T1, 5-hydroxytryptamine receptor 1A; assay: biochemical
[6] = biological target: T2, 5-hydroxytryptamine receptor 1A (Homo sapiens) (UniProt P08908); assay: Displacement of [3H]8-OH-DPAT from human recombinant 5HT1A receptor expressed in CHO cells at 1uM; type: cell-based
T2 sequence (whole entry): T1 sequence (P08908 whole entry)

Sodium-dependent serotonin transporter (Rattus norvegicus, UniProt P31652), sequence (P31652 whole entry): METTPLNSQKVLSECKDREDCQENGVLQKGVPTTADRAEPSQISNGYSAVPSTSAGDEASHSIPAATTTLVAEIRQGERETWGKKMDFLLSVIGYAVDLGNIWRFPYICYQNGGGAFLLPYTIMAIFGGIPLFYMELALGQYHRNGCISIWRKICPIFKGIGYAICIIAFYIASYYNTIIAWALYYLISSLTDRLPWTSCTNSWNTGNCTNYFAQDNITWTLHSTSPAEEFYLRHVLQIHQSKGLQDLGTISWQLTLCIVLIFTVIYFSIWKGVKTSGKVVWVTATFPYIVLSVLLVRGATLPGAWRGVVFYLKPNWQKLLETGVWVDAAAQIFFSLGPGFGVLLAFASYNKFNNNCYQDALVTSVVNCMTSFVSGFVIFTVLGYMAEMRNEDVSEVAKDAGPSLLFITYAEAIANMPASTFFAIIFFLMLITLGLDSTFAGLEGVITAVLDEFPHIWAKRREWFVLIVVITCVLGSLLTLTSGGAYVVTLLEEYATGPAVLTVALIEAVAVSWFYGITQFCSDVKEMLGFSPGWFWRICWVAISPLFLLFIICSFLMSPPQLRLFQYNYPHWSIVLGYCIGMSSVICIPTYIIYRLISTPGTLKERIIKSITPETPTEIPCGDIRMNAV
Sodium-dependent serotonin transporter (Homo sapiens, UniProt P31645), sequence (P31645 whole entry): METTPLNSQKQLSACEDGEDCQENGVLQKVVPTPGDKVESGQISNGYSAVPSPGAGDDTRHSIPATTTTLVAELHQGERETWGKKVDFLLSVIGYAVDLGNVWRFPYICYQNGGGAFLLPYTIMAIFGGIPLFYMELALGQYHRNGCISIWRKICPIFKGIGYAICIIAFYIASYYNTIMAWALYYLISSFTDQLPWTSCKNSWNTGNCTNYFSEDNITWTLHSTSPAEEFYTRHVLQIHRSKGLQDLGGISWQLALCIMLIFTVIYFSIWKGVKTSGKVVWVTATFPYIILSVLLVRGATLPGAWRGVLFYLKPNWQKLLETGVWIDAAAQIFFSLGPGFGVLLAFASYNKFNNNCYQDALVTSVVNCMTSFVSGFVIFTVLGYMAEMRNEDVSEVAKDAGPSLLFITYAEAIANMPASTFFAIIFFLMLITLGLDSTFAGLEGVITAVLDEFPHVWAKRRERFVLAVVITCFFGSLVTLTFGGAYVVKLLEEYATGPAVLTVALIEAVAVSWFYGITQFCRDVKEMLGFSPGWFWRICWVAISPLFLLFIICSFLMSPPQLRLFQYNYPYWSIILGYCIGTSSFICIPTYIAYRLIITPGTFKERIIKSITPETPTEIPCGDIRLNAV

Row | SMILES | IC50 [1] [nM] | Activity [2] [%] | IC50 [4] [nM] | Activity [6] [%] | Ki [3] [nM] | Ki [5] [nM]
1 | CCCN(CCCc1c[nH]c2ccc(F)cc12)[C@H]1COc2c(F)ccc(C(=O)NC)c2C1 | 47 | 39 | 752 | – | 11.3 | 2.64
2 | CCCN(CCCc1c[nH]c2ccc(F)cc12)C1COc2c(F)ccc(OC)c2C1 (configuration not stated) | 442 | – | – | – | 12.5 | 19.4
3 | N#Cc1ccc2[nH]cc(CCCN(C3CCC3)C3COc4c(F)ccc(C(N)=O)c4C3)c2c1 (single isomer, unassigned; (-)) | 24.1 | – | 195 | – | 2.44 | 1.98
4 | CNC(=O)c1ccc(F)c2c1C[C@@H](N(CCCc1c[nH]c3ccc(F)cc13)C1CCC1)CO2 | 147 | 0 | 262 | – | 10.2 | 1.32
5 | NC(=O)c1ccc(Cl)c2c1CC(N(CCCc1c[nH]c3ccc(F)cc13)C1CCC1)CO2 (single isomer, unassigned; (-)) | 61.4 | – | 125 | – | 1.98 | 10.9
6 | O=C(NC1CCCCC1)c1ccc(F)c2c1CC(N(CCCc1c[nH]c3ccc(F)cc13)C1CCC1)CO2 (configuration not stated) | 144 | 21 | > 1000 | 44 | – | –

Continued, in another order:

Row | IC50 [1] [nM] | Activity [2] [%] | IC50 [4] [nM] | Activity [6] [%] | SMILES | Ki [3] [nM] | Ki [5] [nM]
7 | 1030 | 8 | > 2000 | 4 | O=C(O)c1ccc(F)c2c1CC(N(CCCc1c[nH]c3ccc(F)cc13)C1CCC1)CO2 (configuration not stated) | – | –
8 | 146 | 31 | – | – | CCCN(CCCc1c[nH]c2ccc(F)cc12)[C@H]1COc2cccc(C(N)=O)c2C1 | 23.4 | 0.93
9 | 10.1 | – | 1000 | – | N#Cc1ccc2[nH]cc(CCCN(C3CCC3)C3COc4c(F)ccc(C(N)=O)c4C3)c2c1 (single isomer, unassigned; (+)) | 9.05 | 258
